Key:
Format in all cases: in vivo
[1] = system: Ocular normotensive Beagle dogs; assay: Intraocular pressure by applanation pneumatonometry in conscious dogs; details: 0.1%, topical to one eye, once daily for five days, vehicle in fellow eye
Method: (§1) Intraocular pressure was measured by applanation pneumatonometry in conscious animals. The test compound was administered topically to one eye while vehicle was given to the fellow eye in a masked fashion. Ocular normotensive Beagle dogs (males, females) were dosed once daily for five days. Laser-induced unilaterally ocular hypertensive Cynomolgus monkeys (females) were dosed once daily for 4 days. Student's paired t-test was used for statistical comparisons. Differences were considered statistically significant if the P-value is less than 0.05.

[2] = system: Laser-induced unilaterally ocular hypertensive Cynomolgus monkeys; assay: Intraocular pressure by applanation pneumatonometry in conscious monkeys; details: 0.1%, topical to one eye, once daily for 4 days, vehicle in fellow eye
Method: as §1

[3] = system: ocular normotensive nonhuman primates (cynomolgus monkeys); assay: Outflow facility of monkeys treated with abnormal cannabidiol; details: 0.1%
Description: (§2) Consequently, the intraocular pressure lowering effects of abnormal cannabidiol is anticipated to predominantly involve reduction of aqueous humor formation in humans and nonhuman primates.

[4] = system: ocular normotensive nonhuman primates (cynomolgus monkeys); assay: Uveoscleral outflow of monkeys treated with abnormal cannabidiol; details: 0.1%
Description: as §2

[5] = topically once-daily for 5 days

Abnormal Cannabidiol
effect on Dog Intraocular Pressure versus time [1]: lowers IOP
effect on Monkey Intraocular Pressure versus time [2]: lowers IOP
Outflow Facility, Ratio, Treated:Control, Treatment ([3]; topical once-daily for 5 days vs vehicle, mean ± sem, n = 6 animals): 0.93 ± 0.09
Outflow Facility, Treated Eye, Treatment ([3]; topical once-daily for 5 days, mean ± sem, n = 6 animals): 0.57 ± 0.08 ul/min/mm Hg
effect on total outflow facility compared to baseline and/or contralateral vehicle-treated control eyes [3, 5]: no significant effects
Uveosclearal Outflow, Ratio, Treated:Control ([4]; topical once-daily for 5 days vs vehicle, mean ± sem, n = 5 animals): 0.78 ± 0.05
Uveosclearal Outflow, Treated Eye ([4]; topical once-daily for 5 days, mean ± sem, n = 5 animals): 0.58 ± 0.17 µL/min
effect on uveoscleral outflow compared to baseline and/or contralateral vehicle-treated control eyes [4, 5]: no significant effects

Reference: patent US20060247321A1, “Abnormal Cannabidiols as agents useful in combination therapy for lowering intraocular pressure” (priority 2005, published 2006)
